Source: BigSolDB 2.1

OC[C@@H](O)CN1CCN(c2ccccc2)CC1
solubility (mole fraction)
Conditions | 283.1 K | 288.1 K | 293.1 K | 298.1 K | 303.1 K | 308.1 K | 313.1 K | 318.1 K | 323.1 K
in ethyl acetate | 0.000375 | 0.000529 | 0.000655 | 0.000809 | 0.00104 | 0.00132 | 0.00172 | 0.00229 | 0.00299
in isobutanol | 0.000871 | 0.00116 | 0.00147 | 0.00194 | 0.00245 | 0.00311 | 0.00397 | 0.0052 | 0.00686
in isopentanol | 0.000649 | 0.000914 | 0.00126 | 0.00165 | 0.00209 | 0.00274 | 0.00358 | 0.00472 | 0.00611
in isopropanol | 0.000146 | 0.000195 | 0.000245 | 0.000302 | 0.000371 | 0.000462 | 0.00057 | 0.000705 | 0.000852
in isopropyl acetate | 0.000293 | 0.000371 | 0.000484 | 0.000609 | 0.000798 | 0.00102 | 0.00132 | 0.00172 | 0.00223
in n-butanol | 0.000527 | 0.00072 | 0.000956 | 0.00131 | 0.00175 | 0.00239 | 0.00318 | 0.00424 | 0.00579
in n-butyl acetate | 0.00032 | 0.000417 | 0.000551 | 0.000714 | 0.000937 | 0.00122 | 0.00156 | 0.00207 | 0.00266
in n-heptanol | 0.000771 | 0.00104 | 0.00135 | 0.0018 | 0.0023 | 0.00297 | 0.00381 | 0.00492 | 0.00628
in n-hexanol | 0.000816 | 0.00108 | 0.00139 | 0.00181 | 0.00235 | 0.00304 | 0.00393 | 0.00503 | 0.00651
in n-pentanol | 0.000634 | 0.000945 | 0.00128 | 0.00163 | 0.00217 | 0.00285 | 0.00372 | 0.00493 | 0.00646
in n-pentyl acetate | 0.000316 | 0.000391 | 0.000525 | 0.000678 | 0.000888 | 0.00114 | 0.0015 | 0.00194 | 0.0025
in n-propanol | 0.000721 | 0.000943 | 0.0012 | 0.00157 | 0.00207 | 0.00277 | 0.00369 | 0.00501 | 0.00656
in n-propyl acetate | 0.000351 | 0.000469 | 0.000613 | 0.000803 | 0.00103 | 0.00132 | 0.00173 | 0.00222 | 0.00293
